Experimental data reported in US20240226100A1, “CONTROL OF PROTEIN EXPRESSION WITH TMP-PROTAC COMPOUNDS” (THE TRUSTEES OF THE UNIVERSITY OF PENNSYLVANIA, priority 2021, published 2024).

Experiments:
[1] = test system: eDHFR-YFP; assay: Washout experiment, reversal of YFP degradation in Jurkat eDHFR-YFP+ cells, flow cytometry; format: cell-based, Escherichia coli; settings: 100 nM, washout after 24 h
Protocol: Jurkat^eDHFR-YFP+ cells were seeded in a clear (Falcon) 12-well plate (3×10^5 cells/well) in complete media and incubated overnight. The following day, all wells were dosed with 100 nM of 7c, and cells were sampled at 0, 4, 8, 12, and 24 h following incubation (1 well was sampled per time point). Following 24 h incubation, remaining wells of cells were collected and centrifuged (Thermo Scientific Sorvall Legend X1R) at 1200 rpm for 5 minutes. Cells were washed 3 times with PBS and seeded on a new clear (Falcon) 12-well plate in fresh complete media. The cells were sampled at 3, 6, 24, 48, and 72 h following the drug washout. All cells were fixed in 4% PFA following sampling, and all samples from […] were analyzed together on a flow cytometer (BD).

[2] = test system: IFNγ; assay: Cytokine release assay, IFNγ ELISA of killing assay supernatant; format: cell-based, human; settings: for T cell IFNγ release / secretion: supernatant of killing assay, 100 nM compound
Protocol: (§1) The concentration of TNF-α and IFN-g in the supernatants following killing assay was determined by ELISA.

[3] = test system: eDHFR-YFP; assay: Degradation of eDHFR-YFP in HEK293T eDHFR-YFP+ cells, Western blot with anti-YFP antibody; format: cell-based, Escherichia coli; settings: 100 nM, 24 h
Protocol: HEK293T eDHFR-YFP (HEK293T^eDHFR-YFP+) and OVCAR8 eDHFR-luc (OVCAR8^eDHFR-luc+) cells are prepared in clear (Falcon) 6-well plates (5×10^5 cells/well) and cultured in complete media. Compound 7c is solubilized in 100% DMSO to 10 mM. 10 mM 7c is serially diluted in sterile water accordingly and each dose administered to cells in fresh media at equal volume, such that the final concentration of DMSO in cell media is <1%. Once incubation with drug is completed, media is removed by vacuum, cells are washed with phosphate-buffered saline (PBS), trypsonized at 37° C., quenched with media, and centrifuged (Thermo Scientific Sorvall Legend X1R) at 1000 RPM for 5 minutes. Media and cell debris are removed by vacuum.
Once cells are isolated by centrifugation (Thermo Scientific Sorvall Legend X1R), they are solubilized in radioimmunoprecipitation assay (RIPA) lysis buffer with protease inhibitor. Cell lysate is incubated on ice for 30 minutes, sonicated, then centrifuged (Thermo Scientific Sorvall Legend Micro 21R) at 14,800 RPM for 10 minutes. Supernatant is removed and transferred to a new Eppendorf tube.
Using Thermo Scientific bicinchoninic acid (BCA) assay kit, total cell protein is quantified and compared to bovine serum albumin (BSA) standards ranging from 10 to 0.625 mg/mL. Cell lysate is aliquoted into a 96-well clear plate (Falcon) and mixed with reagent and shaken at 37° C. for 30 minutes. Samples are analyzed by plate reader (ThermoFisher Varioskan Plusplate), where absorbance is measured at […]. A calibration curve is developed, and samples are prepared to equal mass (mg) of total protein for gel electrophoresis.
Cell lysate is prepared by mixing with 4 uL of loading dye and PBS to give equal total protein and equal total volume across all samples. Each sample is loaded into a NuPage gel (4-12% Bis-tris) and developed in NuPage MES Running Buffer. Once complete, the gel is removed and prepared for protein transfer to membrane. […]

[4] = test system: TNFα; assay: Cytokine release assay, TNFα ELISA of killing assay supernatant; format: cell-based, human
Protocol: as §1

[5] = test system: eDHFR-Luc; assay: Degradation of luciferase in Jurkat-DL cells, luminescence; format: cell-based, Escherichia coli; settings: 4, 8 and 18 h, varying doses
[6] = test system: FAP CAR-eDHFR direct fusion (DF); assay: Inhibitor test in primary human FAP-eDHFR DF CAR T cells, flow cytometry; format: cell-based; settings: primary human FAP-eDHFR DF CAR T cells
Protocol: Following pre-incubation, either 100 nM 7c or vehicle control DMSO (Sigma) was added to the wells, and cells were incubated with the drug for another 4 hours. Following incubation, the cells were washed and their surface CAR expression was assessed on a flow cytometer (BD Biosciences).
Following pre-incubation, the cells were incubated with 100 nM 7c for 4 hours and their CAR expression was assessed on a flow cytometer.

[7] = test system: eDHFR-Lck fusion protein; assay: Dose response in HEK293T eDHFR-Lck cells, Western blot; format: cell-based, Escherichia coli; settings: 24 h
[8] = test system: FAP CAR-eDHFR fusion protein; assay: CAR downregulation in Jurkat cells expressing FAP CAR-eDHFR fusion protein, flow cytometry; format: cell-based, Escherichia coli; settings: serial time points
Source text: Data plotted as raw CAR stain fluorescence is shown in the left panel and percent of maximum CAR expression is shown in the right panel.

[9] = test system: FAP CAR-eDHFR direct fusion (DF); assay: Washout kinetic assay of CAR expression in primary human FAP-eDHFR DF CAR T cells; format: cell-based; settings: 100 nM, washout after 24 h
Protocol: Following a 24 hour incubation with TMP-POM 7c, the remaining cells were washed multiple times with […] (Corning) to remove the drug, returned to culture in a new 12-well plate, and then again sampled serially at different time points following the wash (3, 6, 24, 48, and 72 hours post-washout). All cells were stained for CAR and fixed in 4% following sampling, and were analyzed on a flow cytometer (LSR II, BD Biosciences).
Following 24-hour incubation with TMP-POM 7c, the cells were washed multiple times to remove the drug (red arrow), seeded on a new plate, and then again sampled serially following the drug washout. All cells were stained for CAR and fixed in 4% following sampling.

[10] = test system: eDHFR-Luc; assay: Degradation of luciferase in HEK293T-DL cells, luminescence; format: cell-based, Escherichia coli; settings: 12 and 24 h, varying doses
[11] = different concentrations, 10:1 E:T

Compound: COc1cc(Cc2cnc(N)nc2N)cc(OC)c1OCCCC(=O)NCCOCCOCCNc1cccc2c1C(=O)N(C1CCC(=O)NC1=O)C2=O (centres unmarked) [Compound 7c, 4-(4-((2,4-diaminopyrimidin-5-yl)methyl)-2,6-dimethoxyphenoxy)-N-(2-(2-(2-((2-(2,6-dioxopiperidin-3-yl)-1,3-dioxoisoindolin-4-yl)amino)ethoxy)ethoxy)ethyl)butanamide]
- time to full return of YFP expression to baseline following drug washout [1]: approximately 72 h
- IFNγ secretion across concentrations [2, 11]: inhibition of CAR T cell signaling
- T cell IFNγ release / secretion [2]: inhibits
- T cell IFNγ release / secretion ([2]; listed as TMP-POM 7c): inhibition of CAR T cell signaling
- eDHFR-YFP degradation at 100 nM [3]: causes eDHFR-YFP to degrade
- TNFα secretion across concentrations [4, 11]: inhibition of CAR T cell signaling
- T cell TNF-α release ([4]; supernatant of killing assay, 100 nM compound): inhibits
- degradation of luciferase [5]: degraded
- mechanism of CAR downregulation [6]: proteosome-mediated degradation process
- concentration of optimal degradation of eDHFR-Lck fusion protein [7]: 97 nM
- degradation of CAR molecules from the surface of Jurkat cells [8]: leads to degradation of CAR molecules from the surface of Jurkat cells
- time following washout for CAR expression to return to baseline [9]: ~72 h
- time following washout for CAR expression to start recovering [9]: around 24 hours
- degradation of luciferase [10]: degraded
